Columns and labels:
[1] = tested on: anti-sheep red blood cell antibody production in BALB/c mice; assay: suppression of mouse anti-sheep red blood cell antibody production (PFC); format: in vivo; settings: Table 12B; 10 mg/kg/day
Experimental: (§1) Males 5- to 7-week-old BALB/c mice were immunized with sheep red blood cells (SRBC), and the spleen was resected three or four days later. By counting the plaque forming cells (PFC), suppressive effect on the production of the anti-sheep red blood cell antibody was examined as follows.
(§2) BALB/c mice were immunized with SRBC (1×10^7 cells/mouse, intravenous administration), and ISP-I in the Example 1 was administered intraperitoneally for 4 consecutive days from the day of immunization. Four days after immunization (the next day of the final administration), the spleen was resected and the anti-sheep red blood cell antibody-producing cells were determined by the direct plaque method. At the same time the body weight of the mouse, wet weight of the thymus and the spleen, and numbers of spleen cells were also determined.
as §2, with “(5×10^7” for “(1×10^7”, “the compound” for “ISP-I”, “5” for “1”, “resected,” for “resected”, “time,” for “time”

CCRF-CEM = assay: in vitro; format: cell-based, human
HL60 = assay: in vitro; format: cell-based, human
KB = assay: in vitro; format: cell-based, human
PC-14 = assay: in vitro; format: cell-based, human
U937 = assay: in vitro; format: cell-based, human
[2] = body weight, wet weight of thymus and spleen, number of spleen cells in SRBC-immunized mice; format: in vivo, mouse; settings: Table 12B; 10 mg/kg/day
Experimental: as §1, §2
as §2, with “(5×10^7” for “(1×10^7”, “the compound” for “ISP-I”, “5” for “1”, “resected,” for “resected”, “time,” for “time”

| Compound | Absorbancy (CCRF-CEM; 0.1 μg/ml) | Absorbancy (CCRF-CEM; 1.0 μg/ml) | Absorbancy (CCRF-CEM; 10.0 μg/ml) | Absorbancy (HL60; 0.1 μg/ml) | Absorbancy (HL60; 1.0 μg/ml) | Absorbancy (HL60; 10.0 μg/ml) | Absorbancy (KB; 0.1 μg/ml) | Absorbancy (KB; 1.0 μg/ml) | Absorbancy (KB; 10.0 μg/ml) | Absorbancy (PC-14; 0.1 μg/ml) | Absorbancy (PC-14; 1.0 μg/ml) | Absorbancy (PC-14; 10.0 μg/ml) | Absorbancy (U937; 0.1 μg/ml) | Absorbancy (U937; 1.0 μg/ml) | Absorbancy (U937; 10.0 μg/ml) | also measured |
| --- | --- | --- | --- | --- | --- | --- | --- | --- | --- | --- | --- | --- | --- | --- | --- | --- |
| CCCCCCC(O)CCCCCC/C=C/CC1OC(=O)C(N)(CO)C1O (stereo not drawn) [Example 8] | 0.720 | 0.694 | 0.665 | 0.434 | 0.445 | 0.418 | 0.741 | 0.749 | 0.706 | 0.452 | 0.425 | 0.326 | 0.590 | 0.580 | 0.513 | Number of PFC per 1 × 10^7 cell [1]: 6.7 ± 1.2 × 10^3 /1 × 10^7 cell; Number of PFC per spleen [1]: 8.5 ± 1.9 × 10^4 /spleen; Body weight [2]: 18 ± 1 g; Number of spleen cells [2]: 1.3 ± 0.2 × 10^8 cell; Wet weight spleen [2]: 103 ± 30 mg; Wet weight thymus [2]: 25 ± 9 mg |
| CCCCCCC(O)CCCCCCCCCC(O)C(O)C(N)(CO)C(=O)O (stereo not drawn) [Example 9] | 0.702 | 0.696 | 0.680 | 0.450 | 0.435 | 0.413 | 0.778 | 0.762 | 0.696 | 0.404 | 0.441 | 0.374 | 0.640 | 0.592 | 0.584 |  |
| CCCCCCC(O)CCCCCCCCCC1OC(=O)C(N)(CO)C1O (stereo not drawn) [Example 10] | 0.672 | 0.647 | 0.645 | 0.447 | 0.415 | 0.406 | 0.743 | 0.735 | 0.610 | 0.433 | 0.411 | 0.317 | 0.545 | 0.541 | 0.517 |  |
| CCCCCCC(=O)CCCCCC/C=C/CC1OC(=O)C(CO)(NC(C)=O)C1O (stereo not drawn) [Example 11] | 0.694 | 0.663 | 0.603 | 0.475 | 0.456 | 0.381 | 0.679 | 0.688 | 0.510 | 0.443 | 0.413 | 0.284 | 0.598 | 0.583 | 0.449 |  |

From patent US5219884A, “Immunosuppressant” (Taito Co., Ltd., priority 1990, dated 1993)
